From patent US11478474B2, “2-(3′-(hydroxymethyl)-1-methyl-5-((5-(2-methyl-4-(oxetan-3-yl)piperazin-1-yl)pyridin-2-yl)amino)-6-oxo-1,6-dihydro-[3,4′-bipyridin]-2′-yl)-7,7-dimethyl-7,8-dihydro-2H-cyclopenta[4,5]pyrrolo[1,2-a]pyrazin-1(6H)-one as a BTK inhibitor” (HUTCHISON MEDIPHARMA LIMITED, priority 2020, dated 2022)

What was measured:
[1] = In vivo efficacy of the inhibitory effect on BTK target (anti-IgD antibody-induced B cell activation in mice whole blood after in vivo administration); settings: female, C57BL/6, mouse; 20 mg/kg single oral gavage, 16 h, mice plasma; read-out: Drug concentration in plasma
Description: (§1) Objects: B cells in mice whole blood were induced and activated by the anti-IgD antibody, and the inhibitory effect of the compound of the present invention on B cell activation in vivo was studied, so as to determine the inhibitory effect of the compound of the present invention on the BTK target in vivo.
(§2) Methods: C57BL/6 mice (female, 18-20 g, purchased from Shanghai Lingchang Biotechnology Co., Ltd.) were grouped according to Table 2.
(§3) The animals of each group were administered, then were placed in CO2 for anesthesia at designated time points, blood samples were taken from […] via retro-orbital bleeding, and heparin was used for anticoagulation; 90 μL of whole blood was taken from mice of each group, and added to a 96 well culture plate, and anti-mouse IgD antibody (BIO-RAD, Cat #MCA4693) was added to each well to a final concentration of 0.01 μg/μL (respectively for the each drug-treated group and anti-IgD antibody-inducted vehicle group); in addition, 90 μL of whole blood of mice in the vehicle group was taken and added to the 96-well culture plate, and PBS (phosphate buffer, GIBCO, Cat #C20012500BT) was added to each well to a final concentration of 0.01 μg/μL (namely, the vehicle control group); Each group was mixed well and incubated in a 37° C./5% CO2 incubator for 4 hours. In addition, the blood of mice in the drug-treated group was centrifuged to separate plasma for blood concentration analysis.
(§4) Calculation for B Cell Activation Ratio: B cell activation ratio=percentage of CD69+CD19+double positive B cells/percentage of CD19+single positive B cells
(§5) Calculation for Inhibition Ratio: Inhibition ratio=(percentage of B cell activation ratio in anti-IgD antibody-induced vehicle group-percentage of B cell activation ratio in drug-treated group)/(percentage of B cell activation ratio in anti-IgD antibody-induced vehicle group-percentage of B cell activation ratio in vehicle control group)×100%
(§6) All data are represented by mean±standard error. For the comparison between each drug-treated group and the anti-IgD antibody-induced vehicle group, p value was calculated by Graphpad Prism using one-way ANOVA analysis of variance and Dunnett's test, and for the comparison between each drug-treated group, p value was calculated by using unpaired t test.

[2] = tested on: B cell activation in mouse whole blood induced by anti-IgD antibodies; test: as above
Description: as §1, §2, §3, §4, §5, §6

[3] = biological target: phosphorylated BTK in Ramos cells (Homo sapiens (Human), UniProt Q06187); test: Determination of phosphorylated BTK in Ramos cells (BTK phospho-Y223 HTRF); format: cell-based; settings: anti-human IgM + hydrogen peroxide stimulation
Outline: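 BTK Y223 phosphorylation measured by HTRF (665/615 nm) in lysates of Ramos cells. Cells were serum-starved 2 h, exposed to compound for 1 h (final 0.00018–3.0 μM, 0.3% DMSO), then stimulated 10 min with 10 μg/mL anti-IgM and 3.3 mM H2O2. IC50 derived from percent inhibition between unstimulated and stimulated controls.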

[4] = tested on: B cell activation in rat whole blood; test: Determination of B cell activity in whole blood of rats (anti-rat IgD induced B cell activation, flow cytometry); format: cell-based; settings: anti-rat immunoglobulin D 10 μg/mL, 18 hours, inhibition of B cell activation
Description: Example 4 Determination of B Cell Activity in Whole Blood of Rats
1. Reagents and Materials
Peripheral whole blood of female Wistar rats;
In the determination of the compound activity, the collected peripheral whole blood of rat was added to a 96 well plate at 80 μL/well and cultured in a 5% CO2, 37° C. cell incubator. After half an hour, the test compound was diluted with PBS in a 3-fold gradient to the corresponding concentrations, and then the diluted test compound with different concentrations was added to the culture system of rat whole blood at 10 μL/well (the final concentration of the test compound was 1.0, 0.33, 0.11, 0.037, 0.012, 0.0041, 0.0014, and 0.0005 μM, the final concentration of DMSO was 0.3%, double replicate wells), or the control solution (0.3% DMSO, 6 replicate wells) was added to the corresponding well at 10 μL/well, which were incubated in the cell incubator for one hour. Then 10 μL/well of anti-rat immunoglobulin D diluted in PBS (the final concentration was 10 μg/mL) was add to the treating wells of the test compound and control wells for anti-rat immunoglobulin D, or 10 μL/well of PBS was added to the negative control wells, which were mixed well to continue the culture in a 5% CO2, 37° C. cell incubator, and incubated for 18 hours.
On the second day, the 96-well plates were taken out and the flow cytometry antibody mixture (the final concentration of anti-rat B220PE antibody was 1 μg/mL and the final concentration of anti-rat CD86 FITC antibody was 1 μg/mL) diluted with PBS was added to each well of plate, which were incubated for 30 minutes in the dark, and then 50 μL of blood from each well was pipetted to the freshly prepared 500 μL of lysis buffer to lyse red blood cells. The plates were shaken for 20 minutes, centrifuged to remove the supernatant, then washed, fixed, and detected on a flow cytometer.
The B cell activation in the sample was determined by flow dyeing method.
The average value of the proportion of activated B cells in the wells with anti-rat immunoglobulin D but without the test compound was used as the control treating well for anti-rat immunoglobulin D, and the average value of the proportion of activated B cells in the wells without immunoglobulin D stimulation and without the test compound was used as the negative control treating well. According to the B cell activation ratio in each well, the inhibition ratio (%) of each concentration was calculated, and then the IC50 value was obtained by using the 205 model in XL-Fit 5.3 software (ID Business Solutions Limited).
The inhibition ratio is calculated as follows: inhibition ratio (%)=100%−{(treating well for the test compound−negative control treating well)/(control treating well for anti-rat immunoglobulin D−negative control treating well)}×100%, wherein,
Treating well for the test compound: represents the B cell activation ratio in rat whole blood treated with anti-rat immunoglobulin D and the test compound.
Control treating well for anti-rat immunoglobulin D: represents the B cell activation ratio in rat whole blood treated with anti-rat immunoglobulin D but without the test compound.
Negative control treating well: represents the B cell activation ratio in rat whole blood without the test compound and without immunoglobulin stimulation.
Through the above-mentioned test, the compound of the present invention has a potency to inhibit B cell activation in rat whole blood.

[5] = Stability test in liver microsomes (rat); format: in vitro ADME
Description: (§7) Example 5 Stability Test in Liver Microsomes
(§8) Both male CD-1 mouse pooled liver microsomes and male SD rat pooled liver microsomes were purchased from BioreclamationIVT Corporation, USA.
(§9) Phenacetin, glucose-6-phosphate dehydrogenase (G-6-PDH) and nicotinamide adenine dinucleotide phosphate (NADP) were all purchased from Sigma-Aldrich Corporation, USA. Glucose-6-phosphate (G-6-P) was purchased from Shanghai Eybridge Chemical Technology Co., Ltd.
(§10) Ten mM test compound stock solution: a certain amount of test compound was weighed, and dissolved with an appropriate volume of DMSO to prepare a stock solution with a concentration of 10 mM for use.
(§11) Reaction stopping solution: an appropriate amount of internal standard compound phenacetin was dissolved in acetonitrile to prepare a reaction stopping solution with a concentration of 1000 ng/mL for use at room temperature.
(§12) The test compound stock solution was diluted with an organic solvent (usually a mixture of acetonitrile, methanol and water with various ratios, depending on the solubility of the compound, if necessary, 1 N hydrochloric acid or 1 N sodium hydroxide would be added to facilitate solubilization) to the 0.1 mM (the final concentration of the compound in the reaction system was 1 μM) and the concentration percentage of the organic solvents in the incubation system no more than 1% (wherein the percentage of DMSO was required to be no more than 0.1%). An appropriate amount of 100 mM NADP, 500 mM G-6-P and 100 Unit/mL G-6-PDH were mixed and diluted with ultrapure water (the final system contains 1 mM NADP, 5 mM G-6-P and 1 Unit/mL G-6-PDH), pre-incubated in a 37° C. water bath for 10 minutes and then placed on ice for use as a NADPH regeneration solution. 20 mg/mL liver microsomes solution and 200 mM phosphate buffer was mixed, and diluted with ultrapure water to give a liver microsomes solution containing 2.5 mg/mL liver microsomes (the final concentration of the reaction system is 0.5 mg/mL) and 50 mM phosphate buffer. The diluted liver microsomes solution was mixed with 0.1 mM compound solution, a mixture of 100 mM EDTA, 300 mM MgCl2 solution, 200 mM phosphate buffer (the final system was 3 mM MgCl2, 1 mM EDTA and 50 mM phosphate buffer) and water in an appropriate volume was added. Finally, the NADPH regeneration solution was added, then the reaction solution was placed in a 37° C. water bath to start the reaction (the reaction time was 30 minutes), and the reaction was stopped by adding the ice-cold acetonitrile reaction stopping solution containing the internal standard. The 0-minute sample was not incubated in a 37° C. water bath, and its difference from the 30-minute sample further lies in that the ice-cold acetonitrile reaction stopping solution containing the internal standard was added first, and then the NADPH regeneration solution was added. The sample added with the reaction stopping internal standard solution was vortexed and mixed well, and then centrifuged at 4400 rpm for 10 minutes. The supernatant was taken and diluted ten times with 50% methanol for LC-MS/MS analysis.
(§13) LC-MS/MS was used to determine the concentration of the compound in the sample. The percentage of the remaining compound after 30 minutes of incubation comparing with that in the 0-minute sample was calculated using the peak area ratio of the compound to the internal standard as an indicator, to evaluate the metabolic stability of the compound.
(§14) Instrument: API4500, API4000 or LTQ Mass Spectrometer; the liquid phase is UHPLC system (Shimadzu LC-30 AD, model Nexra X2) including liquid delivery unit, column thermostat, detector and autosampler; or Agilent 1200 Binary Pump series HPLC and CTC Autosampler.
(§15) Chromatographic column: Waters XSELECT Hss T3 C18 (2.5 μm, 2.1×50 mm) or […] (5 μm, 2.0×50 mm)
(§16) A: water with 0.1% FA (formic acid) (with or without 0.1% ACN (acetonitrile))
(§17) B: acetonitrile with 0.1% FA (formic acid).

[6] = Stability test in liver microsomes (mouse); format: in vitro ADME; settings: mouse liver microsomes 0.5 mg/mL, compound 1 μM, 37° C.
Description: as §7, §8, §9, §10, §11, §12, §13, §14, §15, §16, §17

[7] = tested on: TMD8 subcutaneous xenograft (human diffuse large B-cell lymphoma cells); test: In vivo efficacy in TMD8 subcutaneous xenograft model in nude mice
Description: Example 7 Evaluation of In Vivo Efficacy of the Compound of the Present Invention in TMD8 Subcutaneous Xenograft Model
Objects: To investigate the anti-tumor activity of compound 19 in TMD8 subcutaneous xenograft model in nude mice.
Methods: Human diffuse large B-cell lymphoma cells TMD8 (acquired under license from Tokyo Medical and Dental University) were cultured in RPMI1640 medium containing 10% fetal bovine serum. 1×10^7 tumor cells suspended in RPMI1640 medium mixed well with Matrigel (purchased from Corning, USA) at 1:1 were implanted subcutaneously on the right flank of each male Balb/c nude mouse (Shanghai Lingchang Biotechnology Co., Ltd.), pretreated with cyclophosphamide (at a dose of 200 mg/kg, intraperitoneal injection 24 h before cell inoculation). […] All drugs were administered by oral gavage, once a day, and the vehicle control group was administered orally with 0.5% hydroxypropyl methylcellulose solution (pH=3).
Tumor volumes (tumor volume=0.5×long diameter×short diameter^2) and body weights of the mice were measured regularly. The tumor volume change and body weight were statistically analyzed, with p<0.05 considered statistically significant, and p<0.01 as extremely statistically significant.
The anti-tumor activity was evaluated by tumor growth inhibition. Tumor growth inhibition (TGI %)=100%×(1−(TVDt (treatment group)−TVD0 (treatment group))/(TVDt (control group)−TVD0 (control group))) Relative body weight (RBW %)=BWDt/BWD0×100%
wherein, TVD0 represents the tumor volume obtained at first measurement, namely, the tumor volume before drug administration, and TVDt represents the tumor volume on the day of measurement; BWD0 represents the body weight of the animal obtained at first measurement, namely, the body weight of the animal before drug administration; BWDt represents the body weight of the animal on the day of measurement.

[8] = 50 mg/kg oral gavage once a day, Day 21

phosphorylated BTK in Ramos cells, sequence (Q06187 whole entry): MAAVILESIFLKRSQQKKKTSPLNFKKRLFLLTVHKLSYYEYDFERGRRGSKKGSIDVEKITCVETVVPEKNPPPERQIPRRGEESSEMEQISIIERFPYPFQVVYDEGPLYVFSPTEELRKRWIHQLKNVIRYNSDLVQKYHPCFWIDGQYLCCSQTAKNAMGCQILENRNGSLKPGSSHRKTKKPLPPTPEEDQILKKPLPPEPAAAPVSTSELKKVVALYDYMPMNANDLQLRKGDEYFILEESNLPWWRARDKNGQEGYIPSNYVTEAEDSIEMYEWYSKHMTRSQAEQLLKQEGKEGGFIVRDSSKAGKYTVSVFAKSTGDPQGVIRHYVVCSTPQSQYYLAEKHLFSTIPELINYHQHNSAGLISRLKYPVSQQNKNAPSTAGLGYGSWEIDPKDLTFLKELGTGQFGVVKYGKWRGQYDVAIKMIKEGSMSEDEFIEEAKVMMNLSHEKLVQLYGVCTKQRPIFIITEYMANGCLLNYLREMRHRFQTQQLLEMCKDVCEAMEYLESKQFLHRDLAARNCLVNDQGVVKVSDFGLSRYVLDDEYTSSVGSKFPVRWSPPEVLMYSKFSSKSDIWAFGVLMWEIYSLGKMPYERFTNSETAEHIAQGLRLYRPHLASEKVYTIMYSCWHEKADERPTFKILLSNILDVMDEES

## Cn1cc(-c2ccnc(-n3ccn4c5c(cc4c3=O)CC(C)(C)C5)c2CO)cc(Nc2ccc(N3CCN4CCOCC4C3)cn2)c1=O (racemic) [Compound 232]
[1]
  concentration at 16 h: 76.2 ± 41.7 ng/mL
[2]; 20 mg/kg single oral gavage, 16 h
  Inhibition ratio (%): 89%
[2]; 20 mg/kg single oral gavage, 16 h, mean ± standard error
  B cell activation ratio (the proportion of activated B cells to total B cells): 8.4 ± 1.9^***&
[2]; 20 mg/kg, 16 hours after administration, mice whole blood, anti-IgD antibody
  inhibition ratio on B cell activation: 89%

## CCn1cc(Nc2cc(-c3ccnc(-n4ccn5c6c(cc5c4=O)CC(C)(C)C6)c3CO)nn(C)c2=O)nn1 [Compound 25]
[3]
  IC50: 24 nM
[4]
  IC50: 29 nM

## Cn1cc(-c2ccnc(-n3ccn4c5c(cc4c3=O)CC(C)(C)C5)c2CO)cc(Nc2ccc(N3CCN(C4COC4)CC3=O)cn2)c1=O [Compound 34]
[3]
  IC50: 10 nM
[5]; rat & mouse liver microsomes, 30 minutes
  stability in rat & mouse liver microsomes compared with the reference GDC-0853: better than that of the reference GDC-0853
[5]; rat liver microsomes 0.5 mg/mL, compound 1 μM, 37° C.
  RLM (percentage of the remaining compound after 30 minutes of incubation): ~100%
[6]
  MLM (percentage of the remaining compound after 30 minutes of incubation): 89.5%

## C=CC(=O)N1CCC[C@@H](n2nc(-c3ccc(Oc4ccccc4)cc3)c3c(N)ncnc32)C1 [Ibrutinib, reference compound]
[7]; 50 mg/kg oral gavage once a day, 8 animals per group
  Number of animals with CR (Day 21): 1
[7]; 50 mg/kg oral gavage once a day, Day 0, before drug administration
  Tumor volume (mm^3) ± SD Day 0: 397 ± 42 mm^3
[7]; [8]
  TGI (%): 42.4%
  Tumor volume (mm^3) ± SD Day 21: 2027 ± 991 mm^3
[7]; 50 mg/kg oral gavage once a day, relative body weight
  RBW (%) (Day 21): 111.4%
[7]; 50 mg/kg, oral gavage once a day, 21 days after treatment, vs vehicle control
  Tumor growth inhibition (TGI %): 42.4%
